Results reported in ChEMBL document CHEMBL1201862, “PubChem BioAssay data set” (2004).
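A five-concentration, 48-hour dose response in 96-well plates underlies each endpoint, interpolated linearly between surrounding concentrations. GI50 marks 50% less growth.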 Calls of active or inactive are those of the source. No stated cut-off is given here; in the data, active = GI50 up to about 1.1 µM and inactive = higher.

What was measured:
Test in all cases: growth of human tumour cells (NCI), 48 h
HT-29 = test system: HT-29
U-251 = test system: U-251
MCF7 = test system: MCF7
NCI-H23 = test system: NCI-H23
SN12C = test system: SN12C
MDA-MB-231 = test system: MDA-MB-231
SK-MEL-28 = test system: SK-MEL-28
NCI/ADR-RES = test system: NCI/ADR-RES
SNB-75 = test system: SNB-75
MDA-N = test system: MDA-N
SK-OV-3 = test system: SK-OV-3
EKVX = test system: EKVX
ACHN = test system: ACHN
TK-10 = test system: TK-10
UACC-62 = test system: UACC-62
Hs-578T = test system: Hs-578T
SF-295 = test system: SF-295
SF-268 = test system: SF-268
OVCAR-3 = test system: OVCAR-3
UO-31 = test system: UO-31

Measured: GI50

Cc1nc2ccccc2nc1N1CCCC1
inactive: HT-29 > 100 µM | U-251 > 100 µM | MCF7 > 100 µM | NCI-H23 > 100 µM | SN12C > 100 µM | MDA-MB-231 > 100 µM | SK-MEL-28 > 100 µM | NCI/ADR-RES > 100 µM | SNB-75 68.2 µM | MDA-N > 100 µM | SK-OV-3 > 100 µM | EKVX 34.2 µM | ACHN > 100 µM | TK-10 > 100 µM | UACC-62 > 100 µM | Hs-578T > 100 µM | SF-295 > 100 µM | SF-268 > 100 µM

CC(=O)Oc1cc(C)c(OC(C)=O)c2c1[C@H]1CC[C@]3(C)[C@@H](OC(C)=O)CC[C@H]3[C@@H]1CC2
inactive: HT-29 17.1 µM | U-251 15.9 µM | MCF7 20.6 µM | NCI-H23 18.4 µM | OVCAR-3 18.2 µM | SN12C 16.7 µM | MDA-MB-231 17.1 µM | SK-MEL-28 16.4 µM | NCI/ADR-RES 18.2 µM | SNB-75 26.6 µM | MDA-N 14.6 µM | EKVX 13.5 µM | UO-31 15.3 µM | ACHN 14.6 µM | TK-10 16.1 µM | UACC-62 17.7 µM | Hs-578T 23.4 µM | SF-295 20.7 µM | SF-268 23.3 µM

O=c1c2cccnc2[s+]([O-])n1Cc1ccccc1 (stereo unspecified)
inactive: HT-29 > 100 µM | U-251 > 100 µM | MCF7 > 100 µM | NCI-H23 > 100 µM | SN12C > 100 µM | MDA-MB-231 > 100 µM | SK-MEL-28 > 100 µM | NCI/ADR-RES > 100 µM | SNB-75 > 100 µM | MDA-N > 100 µM | SK-OV-3 > 100 µM | EKVX > 100 µM | UO-31 > 100 µM | ACHN > 100 µM | TK-10 > 100 µM | UACC-62 > 100 µM | Hs-578T > 100 µM | SF-295 > 100 µM | SF-268 > 100 µM

CCCCNc1nc(N)nc(Nc2ccc(Br)cc2)c1N=O
inactive: HT-29 86.5 µM | U-251 31.1 µM | MCF7 74.6 µM | NCI-H23 > 100 µM | OVCAR-3 56.5 µM | SN12C 58.7 µM | MDA-MB-231 41.8 µM | SK-MEL-28 > 100 µM | NCI/ADR-RES 39.4 µM | SNB-75 52.2 µM | MDA-N > 100 µM | EKVX > 100 µM | UO-31 28.1 µM | ACHN 60.3 µM | TK-10 > 100 µM | UACC-62 62.7 µM | Hs-578T 27.5 µM | SF-268 > 100 µM

Nc1nc(-c2cc(-c3cccc4ccccc34)nc(N)n2)cc(-c2cccc3ccccc23)n1
inactive: HT-29 > 100 µM | U-251 > 100 µM | MCF7 > 100 µM | NCI-H23 > 100 µM | OVCAR-3 > 100 µM | SN12C > 100 µM | MDA-MB-231 > 100 µM | SK-MEL-28 > 100 µM | NCI/ADR-RES > 100 µM | MDA-N > 100 µM | SK-OV-3 > 100 µM | EKVX > 100 µM | UO-31 > 100 µM | ACHN > 100 µM | TK-10 > 100 µM | UACC-62 > 100 µM | Hs-578T > 100 µM | SF-295 65.8 µM | SF-268 > 100 µM

CCCC[Si](CCCC)(CCCC)O[C@@H](/C=C/C(=O)OCC)[C@H](Cc1ccccc1)O[Si](CCCC)(CCCC)CCCC
inactive: HT-29 > 100 µM | U-251 > 100 µM | MCF7 > 100 µM | NCI-H23 > 100 µM | SN12C > 100 µM | MDA-MB-231 > 100 µM | NCI/ADR-RES > 100 µM | SNB-75 > 100 µM | MDA-N > 100 µM | SK-OV-3 > 100 µM | EKVX > 100 µM | UO-31 > 100 µM | ACHN > 100 µM | TK-10 40.1 µM | UACC-62 > 100 µM | Hs-578T > 100 µM | SF-295 > 100 µM | SF-268 > 100 µM
